Data reported in the SangsterLogP compilation.

assay: method code SF-HPLC, from DOI: 10.1080/01483919108049310; details: pH 8.5

| SMILES | logD |
| --- | --- |
| Cc1nn(-c2ccccc2)c(Nc2ccc(Cl)cn2)c1[N+](=O)[O-] | 3.74 |
| Cc1nn(-c2ccccc2)c(NN=Cc2ccc3c(c2[N+](=O)[O-])OCO3)c1[N+](=O)[O-] | 3.39 |
| Cc1ccccc1Nc1c([N+](=O)[O-])c(C)nn1-c1ccccc1 | 3.8 |

Second part, the compound after the results:

| logD | SMILES |
| --- | --- |
| 2.78 | Cc1nn(-c2ccccc2)c(Nc2ccc([N+](=O)[O-])cc2)c1[N+](=O)[O-] |
| 3.25 | Cc1cccc(Nc2c([N+](=O)[O-])c(C)nn2-c2ccccc2)c1 |
| 3.89 | Cc1nn(-c2ccccc2)c(Nc2ccc(C(F)(F)F)cc2)c1[N+](=O)[O-] |
| 2.98 | Cc1nn(-c2ccccc2)c(Nc2ccccc2)c1[N+](=O)[O-] |
| 3.43 | Cc1ccc(Nc2c([N+](=O)[O-])c(C)nn2-c2ccccc2)cc1 |
